Measured values from patent publication US12448389B2, “BRM targeting compounds and associated methods of use” (Prelude Therapeutics Incorporated, priority 2020, dated 2025).

Experiments:
SMARCA2-HiBiT = molecular target: T1, SMARCA2-HiBiT (Homo sapiens, UniProt P51531); test: SMARCA2 HiBiT degradation assay in HeLa cells; format: cell-based; settings: 18 hours incubation; for DC50: read-out: HeLa_HiBit-SM2 DC50; for Dmax: HeLa, read-out: HeLa-HiBit-SM2 Dmax (%)
T1 construct: SMARCA2-HiBiT knock-in Hela monoclonal cell (CS302366); host or cells: HeLa monoclonal knock-in line (CRISPR HiBiT knock-in at the endogenous locus, heterozygous)
In short: (§1)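 HeLa monoclonal lines with heterozygous HiBiT knock-in were seeded at 2500 cells/well in EMEM with 10% FBS and treated with compound for 18 h at 37 °C. Remaining tagged protein was measured by Nano-Glo HiBiT lytic luminescence after 30–60 min at RT, and values came from curve fitting.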

SMARCA4-HiBiT = molecular target: T2, SMARCA4-HiBiT (Homo sapiens, UniProt P51532); test: SMARCA4 HiBiT degradation assay in HeLa cells; format: cell-based; settings: 18 hours incubation; for DC50: read-out: HeLa-HiBit-SM4 DC50; for Dmax: HeLa, read-out: HeLa-HiBit-SM4 Dmax (%)
T2 construct: SMARCA4-HiBiT knock-in Hela monoclonal cell (CS3023226); host or cells: HeLa monoclonal knock-in line (CRISPR HiBiT knock-in at the endogenous locus, heterozygous)
In short: as §1

T2 sequence (P51532 whole entry): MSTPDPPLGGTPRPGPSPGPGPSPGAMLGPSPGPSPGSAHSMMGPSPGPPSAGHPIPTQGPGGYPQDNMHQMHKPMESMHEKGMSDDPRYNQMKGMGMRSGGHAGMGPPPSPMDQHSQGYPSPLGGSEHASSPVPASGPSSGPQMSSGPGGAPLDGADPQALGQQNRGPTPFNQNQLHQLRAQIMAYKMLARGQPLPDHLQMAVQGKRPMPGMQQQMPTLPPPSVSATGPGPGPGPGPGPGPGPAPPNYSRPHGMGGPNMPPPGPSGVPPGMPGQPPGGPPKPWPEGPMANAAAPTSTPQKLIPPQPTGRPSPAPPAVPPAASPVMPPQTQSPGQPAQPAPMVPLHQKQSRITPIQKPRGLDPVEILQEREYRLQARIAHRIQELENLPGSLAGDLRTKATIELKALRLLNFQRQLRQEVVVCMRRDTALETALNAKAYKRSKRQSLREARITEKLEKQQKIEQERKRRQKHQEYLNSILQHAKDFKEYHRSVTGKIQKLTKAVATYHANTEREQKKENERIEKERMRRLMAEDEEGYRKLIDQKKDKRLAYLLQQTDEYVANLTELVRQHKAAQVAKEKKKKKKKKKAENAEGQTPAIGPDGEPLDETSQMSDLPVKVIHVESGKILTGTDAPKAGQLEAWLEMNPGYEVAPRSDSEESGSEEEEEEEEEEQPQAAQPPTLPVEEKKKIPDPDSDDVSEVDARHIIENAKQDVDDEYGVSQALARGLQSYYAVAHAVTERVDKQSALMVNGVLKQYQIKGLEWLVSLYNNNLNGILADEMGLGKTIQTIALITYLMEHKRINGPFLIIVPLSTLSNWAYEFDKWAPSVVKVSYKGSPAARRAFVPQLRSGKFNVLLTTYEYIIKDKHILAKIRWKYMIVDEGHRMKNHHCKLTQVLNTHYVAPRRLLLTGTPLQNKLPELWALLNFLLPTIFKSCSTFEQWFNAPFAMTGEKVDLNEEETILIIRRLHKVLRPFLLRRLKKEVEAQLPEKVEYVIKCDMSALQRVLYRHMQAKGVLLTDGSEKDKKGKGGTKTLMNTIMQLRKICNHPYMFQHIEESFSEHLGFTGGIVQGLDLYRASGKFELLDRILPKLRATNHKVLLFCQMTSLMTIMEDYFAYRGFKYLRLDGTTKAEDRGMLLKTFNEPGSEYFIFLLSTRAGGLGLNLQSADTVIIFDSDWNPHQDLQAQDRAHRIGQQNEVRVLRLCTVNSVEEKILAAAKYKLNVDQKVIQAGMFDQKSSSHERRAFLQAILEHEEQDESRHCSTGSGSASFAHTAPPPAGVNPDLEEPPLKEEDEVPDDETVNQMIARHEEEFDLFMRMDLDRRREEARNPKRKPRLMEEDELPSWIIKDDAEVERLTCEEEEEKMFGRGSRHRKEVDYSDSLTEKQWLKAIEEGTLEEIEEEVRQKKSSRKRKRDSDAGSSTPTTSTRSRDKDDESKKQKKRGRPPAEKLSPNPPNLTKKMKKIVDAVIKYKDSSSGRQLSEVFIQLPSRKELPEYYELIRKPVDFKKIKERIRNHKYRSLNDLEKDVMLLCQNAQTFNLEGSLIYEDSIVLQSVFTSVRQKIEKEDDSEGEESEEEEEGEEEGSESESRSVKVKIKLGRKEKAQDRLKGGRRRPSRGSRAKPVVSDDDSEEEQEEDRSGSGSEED
T1 sequence (P51531 whole entry): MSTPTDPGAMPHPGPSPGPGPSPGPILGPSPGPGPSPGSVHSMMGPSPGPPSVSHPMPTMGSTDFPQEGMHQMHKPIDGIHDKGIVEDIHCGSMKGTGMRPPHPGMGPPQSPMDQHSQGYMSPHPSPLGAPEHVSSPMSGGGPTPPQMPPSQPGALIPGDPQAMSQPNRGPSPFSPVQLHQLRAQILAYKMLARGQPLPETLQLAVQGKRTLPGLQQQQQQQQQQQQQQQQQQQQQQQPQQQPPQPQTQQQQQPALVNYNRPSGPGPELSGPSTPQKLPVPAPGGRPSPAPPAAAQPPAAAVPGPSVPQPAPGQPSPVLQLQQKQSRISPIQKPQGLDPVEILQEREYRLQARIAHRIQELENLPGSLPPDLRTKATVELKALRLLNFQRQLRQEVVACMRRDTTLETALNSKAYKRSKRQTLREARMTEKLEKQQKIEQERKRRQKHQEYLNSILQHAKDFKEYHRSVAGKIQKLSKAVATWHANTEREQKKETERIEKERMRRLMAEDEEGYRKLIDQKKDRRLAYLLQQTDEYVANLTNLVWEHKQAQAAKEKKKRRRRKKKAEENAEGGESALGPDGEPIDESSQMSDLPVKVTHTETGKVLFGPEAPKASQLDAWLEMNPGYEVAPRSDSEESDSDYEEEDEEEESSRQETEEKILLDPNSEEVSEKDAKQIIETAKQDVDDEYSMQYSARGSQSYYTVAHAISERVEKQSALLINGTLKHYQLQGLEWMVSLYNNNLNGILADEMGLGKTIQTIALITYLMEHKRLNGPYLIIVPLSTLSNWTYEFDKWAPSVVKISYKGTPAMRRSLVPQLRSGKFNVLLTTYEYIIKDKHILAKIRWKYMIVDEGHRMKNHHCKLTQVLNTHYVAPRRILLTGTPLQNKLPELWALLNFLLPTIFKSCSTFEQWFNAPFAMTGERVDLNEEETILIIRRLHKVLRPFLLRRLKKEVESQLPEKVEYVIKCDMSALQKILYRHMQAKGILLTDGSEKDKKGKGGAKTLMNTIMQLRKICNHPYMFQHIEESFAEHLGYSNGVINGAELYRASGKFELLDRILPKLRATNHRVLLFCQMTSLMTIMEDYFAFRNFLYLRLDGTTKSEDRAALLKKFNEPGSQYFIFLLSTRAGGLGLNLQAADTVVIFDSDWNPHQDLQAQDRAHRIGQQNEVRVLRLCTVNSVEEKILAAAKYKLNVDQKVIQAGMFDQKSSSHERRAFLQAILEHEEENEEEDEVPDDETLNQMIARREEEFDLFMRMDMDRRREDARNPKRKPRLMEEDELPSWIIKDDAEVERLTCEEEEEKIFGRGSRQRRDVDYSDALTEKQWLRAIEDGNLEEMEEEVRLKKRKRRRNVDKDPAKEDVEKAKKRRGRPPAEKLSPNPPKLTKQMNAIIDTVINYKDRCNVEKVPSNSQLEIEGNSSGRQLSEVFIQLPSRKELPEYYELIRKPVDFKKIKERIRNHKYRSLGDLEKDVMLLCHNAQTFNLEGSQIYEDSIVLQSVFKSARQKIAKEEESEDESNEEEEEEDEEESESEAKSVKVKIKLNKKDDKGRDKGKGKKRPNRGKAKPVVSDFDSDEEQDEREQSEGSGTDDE

SMILES	DC50 (SMARCA2-HiBiT) [nM]	Dmax (SMARCA2-HiBiT) [%]	DC50 (SMARCA4-HiBiT) [nM]	Dmax (SMARCA4-HiBiT) [%]	HeLa-HiBit-SM2 Dmax (%) (SMARCA2-HiBiT)	HeLa-HiBit-SM4 Dmax (%) (SMARCA4-HiBiT)
CC1CN(C(=O)N2CCN3c4cc(-c5ccccc5O)nnc4NC[C@H]3C2)CCN1CC1CCN(c2ccc3c(c2)C(=O)N(C2CCC(=O)NC2=O)C3)CC1 (stereo partly drawn) [Example 106, 3-(6-(4-((4-((S)-2-(2-hydroxyphenyl)-6,6a,7,8,9,10-hexahydro-5H-pyrazino[1′,2′:4,5]pyrazino[2,3-c]pyridazine-8-carbonyl)-2-methylpiperazin-1-yl)methyl)piperidin-1-yl)-1-oxoisoindolin-2-yl)piperidine-2,6-dione]	< 10	> 85	< 10	75 to 85		
CC(C)(C)C(=O)OCN1C(=O)CCC(N2C(=O)c3ccc(N4CCC(CN5CCC(CN6CCN7c8cc(-c9ccccc9O)nnc8NC[C@H]7C6)CC5)CC4)cc3C2=O)C1=O (stereo partly drawn) [Example 34, (3-(5-(4-((4-(((S)-2-(2-hydroxyphenyl)-5,6,6a,7,9,10-hexahydro-8H-pyrazino [1′,2′:4,5]pyrazino[2,3-c]pyridazin-8-yl)methyl)piperidin-1-yl)methyl)piperidin-1-yl)-1,3-dioxoisoindolin-2-yl)-2,6-dioxopiperidin-1-yl)methyl pivalate]	< 10	> 85	< 10	> 85		
CCC1CN(CC2CCN(c3ccc4c(c3)C(=O)N(C3CCC(=O)NC3=O)C4)CC2)CCN1C(=O)N1CCN2c3cc(-c4ccccc4O)nnc3NC[C@H]2C1 (stereo partly drawn) [Example 270, 3-(6-(4-((3-ethyl-4-((S)-2-(2-hydroxyphenyl)-6,6a,7,8,9,10-hexahydro-5H-pyrazino[1′,2′:4,5]pyrazino[2,3-c]pyridazine-8-carbonyl)piperazin-1-yl)methyl)piperidin-1-yl)-1-oxoisoindolin-2-yl)piperidine-2,6-dione]	< 10	> 85	< 10	> 85		
O=C1CCC(N2Cc3cc(CCN4CCC(N5CCC(N6CCN7c8cc(-c9ccccc9O)nnc8NC[C@H]7C6)CC5)CC4)ccc3C2=O)C(=O)N1 (stereo partly drawn) [Example 62, 3-(5-(2-(4-((S)-2-(2-hydroxyphenyl)-5,6,6a,7,9,10-hexahydro-8H-pyrazino[1′,2′:4,5]pyrazino[2,3-c]pyridazin-8-yl)-[1,4′-bipiperidin]-1′-yl)ethyl)-1-oxoisoindolin-2-yl)piperidine-2,6-dione]	< 10	> 85	< 10	> 85		
O=C1CCC(N2Cc3cc(N4CCC(CN5CCC(CN6CCN7c8cc(-c9ccccc9O)nnc8NC[C@H]7C6)CC5)CC4)ccc3C2=O)C(=O)N1 (stereo partly drawn) [Example 231, 3-(5-(4-((4-(((S)-2-(2-hydroxyphenyl)-5,6,6a,7,9,10-hexahydro-8H-pyrazino[1′,2′:4,5]pyrazino[2,3-c]pyridazin-8-yl)methyl)piperidin-1-yl)methyl)piperidin-1-yl)-1-oxoisoindolin-2-yl)piperidine-2,6-dione]	< 10	> 85	< 10	> 85		
O=C1CCC(N2Cc3ccc(C4CCN(CC5CCN(C(=O)N6CCN7c8cc(-c9ccccc9O)nnc8NC[C@H]7C6)CC5)CC4)cc3C2=O)C(=O)N1 (stereo partly drawn) [Example 143, 3-(6-(1-((1-((S)-2-(2-hydroxyphenyl)-6,6a,7,8,9,10-hexahydro-5H-pyrazino[1′,2′:4,5]pyrazino[2,3-c]pyridazine-8-carbonyl)piperidin-4-yl)methyl)piperidin-4-yl)-1-oxoisoindolin-2-yl) piperidine-2,6-dione]	< 10	> 85	10 to 100	75 to 85		
O=C1CCC(N2C(=O)c3ccc(N4CCN(CCN5CCC(N6CCN7c8cc(-c9ccccc9O)nnc8NC[C@H]7C6)CC5)CC4)cc3C2=O)C(=O)N1 (stereo partly drawn) [Example 155, 2-(2,6-dioxopiperidin-3-yl)-5-(4-(2-(4-((S)-2-(2-hydroxyphenyl)-5,6,6a,7,9,10-hexahydro-8H-pyrazino[1′,2′:4,5]pyrazino[2,3-c]pyridazin-8-yl)piperidin-1-yl)ethyl)piperazin-1-yl)isoindoline-1,3-dione]	< 10	> 85	< 10	> 85		
O=C1CCC(N2Cc3ccc(C4CCN(CCN5CCC(CN6CCN7c8cc(-c9ccccc9O)nnc8NC[C@H]7C6)CC5)CC4)cc3C2=O)C(=O)N1 (stereo partly drawn) [Example 120, 3-(6-(1-(2-(4-(((S)-2-(2-hydroxyphenyl)-5,6,6a,7,9,10-hexahydro-8H-pyrazino[1′,2′:4,5]pyrazino[2,3-c]pyridazin-8-yl)methyl)piperidin-1-yl)ethyl)piperidin-4-yl)-1-oxoisoindolin-2-yl) piperidine-2,6-dione]	< 10	> 85	10 to 100	> 85		

Second part, the compound after the results:

DC50 (SMARCA2-HiBiT) [nM]	Dmax (SMARCA2-HiBiT) [%]	DC50 (SMARCA4-HiBiT) [nM]	Dmax (SMARCA4-HiBiT) [%]	HeLa-HiBit-SM2 Dmax (%) (SMARCA2-HiBiT)	HeLa-HiBit-SM4 Dmax (%) (SMARCA4-HiBiT)	SMILES
< 10	75 to 85	< 10	50 to 75			O=C1CCC(N2C(=O)c3ccc(N4CCC(CNC56CC(CN7CCN8c9cc(-c%10ccccc%10O)nnc9NC[C@H]8C7)(C5)C6)CC4)cc3C2=O)C(=O)N1 (stereo partly drawn) [Example 134, 2-(2,6-dioxopiperidin-3-yl)-5-(4-(((3-(((S)-2-(2-hydroxyphenyl)-5,6,6a,7,9,10-hexahydro-8H-pyrazino[1′,2′:4,5]pyrazino[2,3-c]pyridazin-8-yl)methyl)bicyclo[1.1.1]pentan-1-yl)amino)methyl)piperidin-1-yl)isoindoline-1,3-dione]
< 10		< 10		A (A=Dmax>85%)	C (C=50%<Dmax<=75%)	CC1CN(c2ccc3c(c2)C(=O)N(C2CCC(=O)NC2=O)C3=O)CCC1CN1C[C@@H]2[C@H](C1)[C@H]2CN1CCN2c3cc(-c4ccccc4O)nnc3NC[C@H]2C1 (stereo partly drawn) [Example 198, 2-(2,6-dioxopiperidin-3-yl)-5-(4-(((1R,5S,6r)-6-(((S)-2-(2-hydroxyphenyl)-5,6,6a,7,9,10-hexahydro-8H-pyrazino[1′,2′:4,5]pyrazino[2,3-c]pyridazin-8-yl)methyl)-3-azabicyclo[3.1.0]hexan-3-yl)methyl)-3-methylpiperidin-1-yl)isoindoline-1,3-dione]
< 10	75 to 85	< 10	50 to 75			COC1(CN2C[C@@H]3[C@@H](CN4CCN5c6cc(-c7ccccc7O)nnc6NC[C@H]5C4)[C@@H]3C2)CCN(c2ccc3c(c2)C(=O)N(C2CCC(=O)NC2=O)C3=O)CC1 (stereo partly drawn) [Example 89, 2-(2,6-dioxopiperidin-3-yl)-5-(4-(((1R,5S,6s)-6-(((S)-2-(2-hydroxyphenyl)-5,6,6a,7,9,10-hexahydro-8H-pyrazino[1′,2′:4,5]pyrazino[2,3-c]pyridazin-8-yl)methyl)-3-azabicyclo[3.1.0]hexan-3-yl)methyl)-4-methoxypiperidin-1-yl)isoindoline-1,3-dione]
< 10	> 85	< 10	75 to 85			CC1(CN2CCC(CN3CCN4c5cc(-c6ccccc6O)nnc5NC[C@H]4C3)CC2)CCN(c2ccc3c(c2)C(=O)N(C2CCC(=O)NC2=O)C3=O)CC1 (stereo partly drawn) [Example 226, 2-(2,6-dioxopiperidin-3-yl)-5-(4-((4-(((S)-2-(2-hydroxyphenyl)-5,6,6a,7,9,10-hexahydro-8H-pyrazino[1′,2′:4,5]pyrazino[2,3-c]pyridazin-8-yl)methyl)piperidin-1-yl)methyl)-4-methylpiperidin-1-yl)isoindoline-1,3-dione]
< 10	75 to 85	< 10	50 to 75			C[C@H]1CN2c3cc(-c4ccccc4O)nnc3NC[C@H]2CN1C[C@H]1[C@@H]2CN(CC3CCN(c4ccc5c(c4)C(=O)N(C4CCC(=O)NC4=O)C5=O)CC3)C[C@@H]21 (stereo partly drawn) [Example 44, 2-(2,6-dioxopiperidin-3-yl)-5-(4-(((1R,5S,6r)-6-(((6aS,9S)-2-(2-hydroxyphenyl)-9-methyl-5,6,6a,7,9,10-hexahydro-8H-pyrazino[1′,2′:4,5]pyrazino[2,3-c]pyridazin-8-yl)methyl)-3-azabicyclo[3.1.0]hexan-3-yl)methyl)piperidin-1-yl)isoindoline-1,3-dione]
< 10	> 85	< 10	75 to 85			O=C1CCC(N2C(=O)c3ccc(N4CCC(CN5CC6CC(CN7CCN8c9cc(-c%10ccccc%10O)nnc9NC[C@H]8C7)C6C5)C(F)(F)C4)cc3C2=O)C(=O)N1 (stereo partly drawn) [Example 188, 5-[3,3-difluoro-4-[[6-[[(10S)-4-(2-hydroxyphenyl)-1,5,6,8,12-pentazatricyclo[8.4.0.02,7]tetradeca-2(7),3,5-trien-12-yl]methyl]-3-azabicyclo[3.2.0]heptan-3-yl]methyl]piperidin-1-yl]-2-(2,6-dioxopiperidin-3-yl)isoindole-1,3-dione]
< 10	> 85	< 10	> 85			CC1CC(CN2CCN3c4cc(-c5ccccc5O)nnc4NC[C@H]3C2)CCN1CC1CCN(c2cc3c(cc2F)C(=O)N(C2CCC(=O)NC2=O)C3=O)CC1 (stereo partly drawn) [Example 166, 2-(2,6-dioxopiperidin-3-yl)-5-fluoro-6-[4-[[4-[[(10S)-4-(2-hydroxyphenyl)-1,5,6,8,12-pentazatricyclo[8.4.0.02,7]tetradeca-2,4,6-trien-12-yl]methyl]-2-methylpiperidin-1-yl]methyl]piperidin-1-yl] isoindole-1,3-dione]
